Experiment [1] has as its system 4PD1^hi. The experiment in a line: 4PD1hi and Treg frequency/phenotype in tumor-bearing mice under treatment (FACS, immunofluorescence). The format is in vivo, mouse. On the procedure:
(§1) B16 melanoma cells were implanted intradermally (10^5 cells, for tumor-growth and survival analyses) or subcutaneously in matrigel (Matrigel Matrix Growth Factor Reduced, Becton Dickinson) (2×10^5 cells, for immune-cell infiltrate analyses) in C57BL/6J mice. Vaccination with VRP-TRP2 (AlphaVax Inc.) was performed by injection of 1×10^6 virus-like replicon particles (VRPs) (Zappasodi and Merghoub, 2015) expressing mouse TRP2 into the plantar surface of each footpad for 3 times 1 week apart, starting 3 days after tumor implantation (Avogadri et al., 2014). Treatment with anti-CTLA-4 (clone 9D9, 100 μg or 300 μg/injection), anti-PD-1 (clone RMP1-14, 250 μg/injection), or the matched isotype IgGs (BioXcell) was started 3-4 (optimal treatment) or 6-7 days (suboptimal treatment) after tumor implantation for respectively 5 or 4 intraperitoneal (i.p.) administrations 3 days apart. Immunization with sRBC was performed i.p. with 200 μl 10% volume/volume sRBC solution (Innovative Research). The Bcl6 inhibitor 79.6 (Calbiochem) was administered daily i.p. in 10% DMSO at 50 mg/kg (Cerchietti et al., 2010). TUBO breast carcinoma cells were implanted subcutaneously in Balb/c mice (10^6 cells/mouse) and anti-CTLA-4 treatment was started 10 days after. Animals were monitored at least twice a week and were considered tumor-free until intradermal lesions were palpable.
(§2) Tumors were dissociated after 30 min incubation with Liberase TL and DNAse I (Roche) to obtain single-cell suspensions. When tumor mass exceeded 0.1 gr, immune-cell infiltrates were enriched by Percoll (GE Healthcare) gradient centrifugation. Cells from tumor-draining lymph nodes and spleens were prepared by mechanical dissociation on 40 μM filters and RBC lysis (ACK buffer, Lonza). Mouse PB was collected by retro-orbital puncture and RBC were lysed with Pharm Lyse Buffer (BD Bioscences). […]

The next experiment has as its system B16 melanoma. The experiment in a line: Tumor growth and tumor-free survival in tumor-bearing mice. The class given is in vivo, mouse. How it is done:
as §1

Experiment [2] has as its system 4PD1^hi. The experiment in a line: FACS monitoring of circulating 4PD1hi in advanced NSCLC patients during immune checkpoint blockade. The format is in vivo, human. On the procedure:
To evaluate the role of 4PD1^hi in the development of anti-tumor immune responses in vivo, we monitored this cell population in cancer patients treated with immune checkpoint blockade. To detect human PD-1, we employed a mAb whose binding is not cross-blocked by the therapeutic αPD-1 Abs nivolumab or pembrolizumab (FIG. 7A). […] We thus explored in mice the capability of αCTLA-4 monotherapy to increase 4PD1^hi in a dose-dependent manner, by treating with 100 μg (standard dose in mice) or a higher amount (300 μg) of αCTLA-4 (FIG. 8B). […] Furthermore, in different mouse strains (C57BL/6J and Balb/c) we observed that the presence of tumor contributes to anti-CTLA-4-mediated induction of 4PD1^hi.
(§3) All patients and healthy donors signed an approved informed consent before providing tissue samples. Patient samples were collected on a tissue-collection protocol approved by the MSKCC Institutional Review Board and processed as described (Holmgaard et al., 2015).
Tumors were dissociated after 30 min incubation with Liberase TL and DNAse I (Roche) to obtain single-cell suspensions. When tumor mass exceeded 0.1 gr, immune-cell infiltrates were enriched by Percoll (GE Healthcare) gradient centrifugation. Cells from tumor-draining lymph nodes and spleens were prepared by mechanical dissociation on 40 μM filters and RBC lysis (ACK buffer, Lonza). […]

The test system of experiment [3] is 4PD1^hi. The experiment in a line: FACS monitoring of circulating 4PD1hi / CD4+ T-cell subsets in advanced melanoma patients during immune checkpoint blockade. The settings on record: for circulating 4PD1hi frequency: metastatic melanoma patients, ipilimumab n=47, pembrolizumab n=52, relative to baseline. The format is in vivo, human.
From the text: We further confirmed the results achieved in NSCLC patients in larger cohorts of metastatic melanoma patients treated with ipilimumab (FIG. 8C, αCTLA-4, n=47) or the αPD-1 pembrolizumab (FIG. 8C, n=52, 50/52 upon relapse on ipilimumab). αCTLA-4 increased circulating 4PD1^hi, while administration of αPD-1 reduced their frequency (FIG. 8C). We further substantiated the capability of αPD-1 (pembrolizumab) to down-regulate 4PD1hi in an independent cohort of melanoma patients (Huang et al., 2017) (FIG. 8F).
as §3
Tumors were dissociated after 30 min incubation with Liberase TL and DNAse I (Roche) to obtain single-cell suspensions. When tumor mass exceeded 0.1 gr, immune-cell infiltrates were enriched by Percoll (GE Healthcare) gradient centrifugation. Cells from tumor-draining lymph nodes and spleens were prepared by mechanical dissociation on 40 μM filters and RBC lysis (ACK buffer, Lonza). Mouse PB was collected by retro-orbital puncture and RBC were lysed with Pharm Lyse Buffer (BD Bioscences). Surface staining of mouse cells was performed after 15 min pre-incubation with anti-mouse CD16/CD32 Ab (clone 2.4G2; BD Biosciences) to block FcγR binding, with panels of appropriately diluted fluorochrome-conjugated Abs (from BD Biosciences, eBioscience or Invitrogen) against the following mouse proteins in different combinations: CD45 (clone 30-F11), CD45.1 (clone A20), CD4 (clone RM4-5), CD8a (clone 5H10), Thy1.1 (clone OX-7), B220 (RA3-6B2), CD19 (clone 1D3), PD-1 (RMP1-30), CD44 (clone IM7), CD62L (clone MEL-14), CD25 (clone PC61.5), CD86 (clone GL-1), I-A/I-E (clone M5/114.15.2), PD-L1 (clone MIH5), ICOS (clone C398.4A), CXCR5 (biotin-conjugated clone 2G8, followed by PE-/APC-labeled streptavidin staining), and a eFluor506 fixable viability dye. For intracellular staining, mouse cells were fixed and permeabilized (Foxp3 fixation/permeabilization buffer, eBioscience) and incubated with appropriately diluted PECF594-labeled anti-Bcl6 (clone K112-91, BD Biosciences), PECy7-labeled anti-Ki67 (clone B56, BD Biosciences), and FITC-labeled anti-Foxp3 (clone FJK-16s, eBioscience) Abs. Surface staining of human cells was performed in the presence of FcγR Blocking reagent (Miltenyi Biotec) with proper dilutions of fluorochrome-conjugated Abs (from BD Biosciences, eBioscience or Tonbo) against the following human proteins in different combinations: CD45 (clone HI30), CD45RA (clone HI100), CD4 (clone RPA-T4), PD-1 (clone MIH4 or J105 in anti-PD-1-treatment naïve samples), CD25 (clone MA251), ICOS (clone ISA-3), CXCR5 (clone RF8B2), CD19 (clone HIB19), and CD86 (clone FUN-1), and a eFluor506 fixable viability dye. For intracellular staining, human cells were fixed and permeabilized (Foxp3 fixation/permeabilization buffer, eBioscience) and then incubated with appropriately diluted eFuor450-labeled anti-Foxp3 (clone PCH101, eBiosciences), PECF594-labeled anti-Bcl6 (clone K112-91), and APC-labeled anti-CTLA-4 (clone BNI3, BD Biosciences) Abs.

The next experiment concerns circulating B cells. Nature of the experiment: CD86 expression on circulating B cells of metastatic melanoma patients. The format is in vivo, human. Conditions: ipilimumab 3 mg/kg q3 wks, n=16. On the procedure: as §3, §2

Consider `O=C(O)CC(C(=O)O)n1c(O)c(C2=c3cc(Br)ccc3=NC2=O)sc1=S` (stereo not shown) [Bcl6 inhibitor], for which, in the experiment on 4PD1^hi [1] (Bcl6 inhibition), the “intra-tumor Tregs” value is on record as “favored intra-tumor Treg expansion” and the “total CD4+ or CD8+ T-cell intra-tumor infiltration” value is on record as “did not find significant increases”. For the same molecule, in the experiment with 4PD1^hi [1] (Bcl6 inhibitor 50 mg/kg daily i.p.), the “4PD1hi in the periphery and at the tumor site” value is on record as “effective in controlling”. The “anti-tumor activity in RAG KO mice” value with B16 melanoma (RAG KO mice lacking mature T and B cells, Bcl6 inhibition) is “completely lost”. Moreover, the tumor growth result in the experiment on B16 melanoma (WT mice, Bcl6 inhibitor, also in the context of CTLA-4 blockade and high baseline 4PD1hi) is listed as “modestly (but significantly) delayed tumor growth”.
Consider ipilimumab, for which the “circulating 4PD1hi” value in the experiment with 4PD1^hi [2] (NSCLC patients, ipilimumab 1 or 3 mg/kg added to nivolumab 1 mg/kg, compared with nivolumab monotherapy) is listed as “proportional increases”. Moreover, the “ICOS expression in CD4+ T cell subsets” value with 4PD1^hi [3] (melanoma cohort, 4PD1neg, Tregs and 4PD1hi) is listed as “induced ICOS expression”. The “circulating 4PD1hi frequency” value in the experiment on 4PD1^hi [3] is “increased”. Besides, in the experiment on circulating B cells, the “CD86 on circulating B cells” value is listed as “up-regulation”.
Take nivolumab: the “peripheral 4PD1hi frequency” value in the experiment on 4PD1^hi [2] (metastatic NSCLC patients, nivolumab monotherapy (nivo3, 3 mg/kg q2 wks, n=10), relative to baseline) is on record as “reduced”.
pembrolizumab: the “4PD1hi frequency, independent cohort” value in the experiment on 4PD1^hi [3] (independent cohort of melanoma patients, pembrolizumab 2 mg/kg q3 wks, n=18) is listed as “down-regulate”. Further, in the experiment on 4PD1^hi [3] (melanoma patients, higher dose of pembrolizumab (2 mg/kg or 10 mg/kg)), the “dose dependence of 4PD1hi down-regulation” value is “more efficient at down-regulating”. The “circulating 4PD1hi frequency” value with 4PD1^hi [3] is recorded as “reduced”.
